According to ChEMBL document CHEMBL1122475, “Antidepressant activity of 5-aryl-2,3,5,6-tetrahydroimidazo[2,1-a]isoquinolin-5-ols” (1983):
Calls of active or inactive are those of the source. No cut-off for these calls is given here.

How the values were obtained:
Mus musculus [1] = experiment: Dose at which 50% convulsions occurred in mice (ip); format: functional
Mus musculus [2] = experiment: Dose required to induce hyperactivity in mice (ip); not active at a dose of 50.0 mg/kg; format: functional, organism-based; parameters: dose 50 mg/kg
Mus musculus [3] = experiment: Dose required to induce hypersensitivity in mice (ip); not active at a dose of 50.0 mg/kg; format: functional, organism-based; parameters: dose 50 mg/kg
Mus musculus [4] = experiment: Minimal dose required to cause aggressiveness in mice after ip administration; not active at a dose of 50.0 mg/kg; format: functional, organism-based; parameters: dose 50 mg/kg
Mus musculus [5] = experiment: Minimal dose required to cause piloerection in mice after ip administration; not active at a dose of 50.0 mg/kg; format: functional, organism-based; parameters: dose 50 mg/kg
Mus musculus [6] = experiment: Minimal dose required to induce hyperaesthesia in mice (ip); not active at a dose of 50.0 mg/kg; format: functional, organism-based; parameters: dose 50 mg/kg
Mus musculus [7] = experiment: Minimal dose required to induce in mice exophthalmus (ip); not active at a dose of 50.0 mg/kg; format: functional, organism-based; parameters: dose 50 mg/kg
Mus musculus [8] = experiment: Minimal dose required to induce in mice straub tail (ip); not active at a dose of 50.0 mg/kg; format: functional, organism-based; parameters: dose 50 mg/kg
Mus musculus [9] = experiment: Inhibition of reserpine (5 mg/kg i.p.) induced hypothermia in mice 2 hr after i.p. administration.; format: functional; conditions: ip
Mus musculus [10] = experiment: Lethal dose by i.p. administration.; format: functional; conditions: ip
Mus musculus [11] = experiment: Inhibition of reserpine (5 mg/kg i.p.) induced hypothermia in mice 4 hr after i.p. administration.; format: functional; conditions: ip
Mus musculus [12] = experiment: Dose required to induce hyperactivity in mice (ip); format: functional
Mus musculus [13] = experiment: Dose required to induce hypersensitivity in mice (ip); not active at 12.5 mg/kg; format: functional, organism-based; parameters: dose 12.5 mg/kg
Mus musculus [14] = experiment: Minimal dose required to cause aggressiveness in mice after ip administration; not active at 12.5 mg/kg; format: functional, organism-based; parameters: dose 12.5 mg/kg
Mus musculus [15] = experiment: Minimal dose required to cause piloerection in mice after ip; not active at 12.5 mg/kg; format: functional, organism-based; parameters: dose 12.5 mg/kg
Mus musculus [16] = experiment: Minimal dose required to induce hyperaesthesia in mice (ip); format: functional
Mus musculus [17] = experiment: Minimal dose required to induce in mice exophthalmus (ip); not active at 12.5 mg/kg at 12.5 mg/kg; format: functional, organism-based
Mus musculus [18] = experiment: Minimal dose required to induce in mice straub tail (ip); not active at 12.5 mg/kg at 12.5 mg/kg; format: functional, organism-based
Felis catus [19] = experiment: Compound tested to induce facilitation of monosynaptic spikes in spinal ventral root by stimulation of the dorsal root (DR-VR) after iv administration in cats; 0.3-1.0; format: functional
Mus musculus [20] = experiment: Minimal dose required to cause piloerection in mice after ip administration; format: functional
Mus musculus [21] = experiment: Minimal dose required to induce in mice exophthalmus (ip); format: functional
Mus musculus [22] = experiment: Dose required to induce hyperactivity in mice (ip); not active at a dose of 12.5 mg/kg; format: functional, organism-based; parameters: dose 12.5 mg/kg
Mus musculus [23] = experiment: Dose required to induce hypersensitivity in mice (ip); format: functional
Mus musculus [24] = experiment: Minimal dose required to cause aggressiveness in mice after ip administration; not active at a dose of 12.5 mg/kg; format: functional, organism-based; parameters: dose 12.5 mg/kg
Mus musculus [25] = experiment: Minimal dose required to induce in mice straub tail (ip); format: functional
Mus musculus [26] = experiment: Dose required to induce hyperactivity in mice (ip); not active at a dose of 25.0 mg/kg; format: functional, organism-based; parameters: dose 25 mg/kg
Mus musculus [27] = experiment: Dose required to induce hypersensitivity in mice (ip); not active at a dose of 25.0 mg/kg; format: functional, organism-based; parameters: dose 25 mg/kg
Mus musculus [28] = experiment: Minimal dose required to cause aggressiveness in mice after ip administration; not active at a dose of 25.0 mg/kg; format: functional, organism-based; parameters: dose 25 mg/kg
Mus musculus [29] = experiment: Minimal dose required to cause piloerection in mice after ip administration; not active at a dose of 25.0 mg/kg; format: functional, organism-based; parameters: dose 25 mg/kg
Felis catus [30] = experiment: Compound tested to induce facilitation of monosynaptic spikes in spinal ventral root by stimulation of the dorsal root (DR-VR) after iv administration in cats; range is 0.1-0.3; format: functional
Mus musculus [31] = experiment: Dose required to induce hyperactivity in mice (ip); weak at a dose of 150.0 mg/kg; format: functional, organism-based; parameters: dose 150 mg/kg
Mus musculus [32] = experiment: Minimal dose required to cause aggressiveness in mice after ip administration; not active at a dose of 150.0 mg/kg; format: functional, organism-based; parameters: dose 150 mg/kg
Mus musculus [33] = experiment: Minimal dose required to cause piloerection in mice after ip administration; not active at a dose of 150.0 mg/kg; format: functional, organism-based; parameters: dose 150 mg/kg
Mus musculus [34] = experiment: Minimal dose required to induce hyperaesthesia in mice (ip); not active at a dose of 150.0 mg/kg; format: functional, organism-based; parameters: dose 150 mg/kg
Mus musculus [35] = experiment: Minimal dose required to induce in mice exophthalmus (ip); not active at a dose of 150.0 mg/kg; format: functional, organism-based; parameters: dose 150 mg/kg
Mus musculus [36] = experiment: Minimal dose required to induce in mice straub tail (ip); not active at a dose of 150.0 mg/kg; format: functional, organism-based; parameters: dose 150 mg/kg
Mus musculus [37] = experiment: Dose required to induce hypersensitivity in mice (ip); weak active at a dose of 12.5 mg/kg; format: functional, organism-based; parameters: dose 12.5 mg/kg
Mus musculus [38] = experiment: Minimal dose required to cause aggressiveness in mice after ip administration; format: functional
Mus musculus [39] = experiment: Minimal dose required to cause piloerection in mice after ip administration; not active at a dose of 12.5 mg/kg; format: functional, organism-based; parameters: dose 12.5 mg/kg

SMILES	CD50 (Mus musculus [1])	ED50 (Mus musculus [9])	LD50 (Mus musculus [10])	ED50 (Mus musculus [11])	ED50 (Mus musculus [12])	MD (Mus musculus [16])	MD (Mus musculus [20])	MD (Mus musculus [21])	ED50 (Mus musculus [23])	MD (Mus musculus [25])	also measured
OC1(c2cccnc2)Cc2ccccc2C2=NCCN21 (configuration not stated)	75 mg/kg	7 mg/kg	68.8 mg/kg	> 25.6 mg/kg							ED50 (Mus musculus [2]): inactive; ED50 (Mus musculus [3]): inactive; MD (Mus musculus [4]): inactive; MD (Mus musculus [5]): inactive; MD (Mus musculus [6]): inactive; MD (Mus musculus [7]): inactive; MD (Mus musculus [8]): inactive
OC1(c2ccccc2)Cc2ccccc2C2=NCCN21 (configuration not stated)		5 mg/kg	37.5 mg/kg	> 9.4 mg/kg	12.5 mg/kg	9.4 mg/kg					ED50 (Mus musculus [13]): inactive; MD (Mus musculus [14]): inactive; MD (Mus musculus [15]): inactive; MD (Mus musculus [17]): inactive; MD (Mus musculus [18]): inactive
OC1(c2cccc(C(F)(F)F)c2)Cc2ccccc2C2=NCCN21 (configuration not stated)	75 mg/kg	1.9 mg/kg	50 mg/kg	> 25.6 mg/kg		37.5 mg/kg	37.5 mg/kg	37.5 mg/kg			Activity (Felis catus [19]): 0.3 mg/kg; ED50 (Mus musculus [2]): inactive; ED50 (Mus musculus [3]): inactive; MD (Mus musculus [4]): inactive; MD (Mus musculus [8]): inactive
OC1(c2cccc(Cl)c2)Cc2ccccc2C2=NCCN21 (configuration not stated)	37.5 mg/kg	2.1 mg/kg	37.5 mg/kg	11.5 mg/kg							
OC1(c2ccc3c(c2)OCO3)Cc2ccccc2C2=NCCN21 (configuration not stated)	18.8 mg/kg	0.1 mg/kg	10.2 mg/kg	0.5 mg/kg		4.7 mg/kg	9.4 mg/kg	4.7 mg/kg	12.5 mg/kg	4.7 mg/kg	ED50 (Mus musculus [22]): inactive; MD (Mus musculus [24]): inactive
OC1(c2ccc(F)cc2)Cc2ccccc2C2=NCCN21 (configuration not stated)	75 mg/kg	0.06 mg/kg	76.9 mg/kg	10 mg/kg	25 mg/kg	18.8 mg/kg	18.8 mg/kg	9.4 mg/kg	25 mg/kg	9.4 mg/kg	Activity (Felis catus [19]): 0.3 mg/kg
OC1(c2ccncc2)Cc2ccccc2C2=NCCN21 (configuration not stated)	37.5 mg/kg	2.3 mg/kg	37.9 mg/kg	3.3 mg/kg		18.8 mg/kg		18.8 mg/kg		18.8 mg/kg	ED50 (Mus musculus [26]): inactive; ED50 (Mus musculus [27]): Weak; MD (Mus musculus [28]): inactive; MD (Mus musculus [29]): inactive
OC1(c2cccs2)Cc2ccccc2C2=NCCN21 (configuration not stated)	75 mg/kg	4.5 mg/kg	68.8 mg/kg	> 25.6 mg/kg		18.8 mg/kg	25 mg/kg	18.8 mg/kg	25 mg/kg	18.8 mg/kg	ED50 (Mus musculus [26]): inactive; MD (Mus musculus [28]): inactive
OC1(c2ccc(Cl)c(Cl)c2)Cc2ccccc2C2=NCCN21 (configuration not stated)		1.6 mg/kg	150 mg/kg	> 25.6 mg/kg					150 mg/kg		Activity (Felis catus [30]): 0.1 mg/kg; ED50 (Mus musculus [31]): Weak; MD (Mus musculus [32]): inactive; MD (Mus musculus [33]): inactive; MD (Mus musculus [34]): inactive; MD (Mus musculus [35]): inactive; MD (Mus musculus [36]): inactive
OC1(c2cccc(F)c2)Cc2ccccc2C2=NCCN21 (configuration not stated)		0.7 mg/kg	21 mg/kg	5.2 mg/kg	12.5 mg/kg	9.4 mg/kg		9.4 mg/kg		9.4 mg/kg	ED50 (Mus musculus [37]): Weak; MD (Mus musculus [38]): 9.4 mg/kg; MD (Mus musculus [39]): inactive
